From patent US7109193B2, “Tricyclic diazepines tocolytic oxytocin receptor antagonists” (Wyeth, priority 2001, dated 2006)

target: T1, human oxytocin receptor (Homo sapiens, UniProt P30559); experiment: Oxytocin binding in Chinese Hamster Ovary cell membranes expressing human oxytocin receptors; conditions: 100 nM, CHO cell membranes, [3H]oxytocin, values without parentheses
T1 construct: host or cells: CHO cells (pcDNA3.1 vector)
T1 sequence (P30559 1-389): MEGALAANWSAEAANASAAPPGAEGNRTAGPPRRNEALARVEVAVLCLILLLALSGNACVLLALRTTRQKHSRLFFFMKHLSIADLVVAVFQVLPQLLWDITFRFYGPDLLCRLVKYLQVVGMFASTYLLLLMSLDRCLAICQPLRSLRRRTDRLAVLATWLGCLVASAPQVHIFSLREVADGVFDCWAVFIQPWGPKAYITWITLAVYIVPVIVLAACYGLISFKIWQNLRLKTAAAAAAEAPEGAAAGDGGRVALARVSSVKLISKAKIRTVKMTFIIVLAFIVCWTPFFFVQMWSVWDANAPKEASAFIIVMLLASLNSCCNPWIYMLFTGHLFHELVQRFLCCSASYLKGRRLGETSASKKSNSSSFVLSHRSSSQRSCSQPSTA

Molecule | OT % inhibition @ 100% nM [%]
COc1cccc(-c2ccc(C(=O)N3Cc4ccc(C(=O)N5CC[C@@H](N(C)C)C5)n4Cc4ccccc43)cc2OC)c1 [Example 283, {10-[(2,3′-Dimethoxy[1,1′-biphenyl]-4-yl)carbonyl]-10,11-dihydro-5H-pyrrolo[2,1-c][1,4]benzodiazepin-3-yl}[(3R)-3-(dimethylamino)pyrrolidinyl]methanone] | 91
COc1cc(C(=O)N2Cc3ccc(C(=O)N(C)CCCN(C)C)n3Cc3ccccc32)ccc1-n1c(C)ccc1C [Example 310, N-[3-(Dimethylamino)propyl]-10-[4-(2,5-dimethyl-i H-pyrrol-1-yl)-3-methoxybenzoyl]-N-methyl-10,11-dihydro-5H-pyrrolo[2,1-c][1,4]benzodiazepine-3-carboxamide] | 58
COc1cc(C(=O)N2Cc3ccc(C(=O)N4CCC[C@H]4CN4CCCC4)n3Cc3ccccc32)ccc1-n1c(C)ccc1C [Example 321, {10-[4-(2,5-Dimethyl-1H-pyrrol-1-yl)-3-methoxybenzoyl]-10,11-dihydro-5H-pyrrolo[2,1-c][1,4]benzodiazepin-3-yl}[(2S)-2-(1-pyrrolidinylmethyl)pyrrolidinyl]methanone] | 62
COc1cc(C(=O)N2Cc3ccc(C(=O)N4CC[C@@H](N(C)C)C4)n3Cc3ccccc32)ccc1-n1c(C)ccc1C [Example 322, [(3R)-3-(Dimethylamino)pyrrolidinyl]{10-[4-(2,5-dimethyl-1H-pyrrol-1-yl)-3-methoxybenzoyl]-10,11-dihydro-5H-pyrrolo[2,1-c][1,4]benzodiazepin-3-yl}methanone] | 66
{10-[(2,2′-Dimethoxy[1,1′-biphenyl]-4-yl)carbonyl]-10,11-dihydro-5H-pyrrolo[2,1-c][1,4]benzodiazepin-3-yl}(4-isopropyl-1-piperazinyl)methanone [Example 244] | 68
